Data published in patent US20240082340A1 (Biohaven Therapeutics Ltd., priority 2021, published 2024).

Assays:
[1] = taken with meals; cited from earlier work
[2] = test system: patients diagnosed with Alzheimer's disease of mild-to-moderate severity; assay: T2 Protect AD trial: Neuropsychiatric Inventory (NPI); format: in vivo, human; settings: for NPI score LS mean change, difference versus placebo: after 48 weeks, troriluzole minus placebo
Excerpt: The NPI is a well-validated, reliable, multi-item instrument to assess psychopathology in AD dementia based on the results of an interview with the study partner (Cummings, 1997). The NPI evaluates both the frequency and severity of 10 neuropsychiatric features, including delusions, hallucinations, agitation/aggression, dysphoria, anxiety, euphoria, apathy, disinhibition, irritability and lability, and aberrant motor behavior, as well as evaluates sleep and appetite/eating disorders. Frequency assessments range from 1 (occasionally, less than once per week) to 4 (very frequently, once or more per day or continuously). Severity assessments range from 1 (mild) to 3 (severe). The score for each subscale is the product of severity and frequency and the total score is the sum of all subscales.
(§1) The T2 Protect AD trial has been conducted, which is a Phase 2/3, randomized, double-blind, placebo-controlled study evaluating the efficacy and safety of troriluzole in patients diagnosed with Alzheimer's disease of mild-to-moderate severity (Mini-Mental State Examination [MMSE] scores of 14-24; mild: 20-24, moderate: 14-19).

[3] = test system: patients diagnosed with Alzheimer's disease of mild-to-moderate severity; assay: T2 Protect AD trial: CDR-Sum of Boxes; format: in vivo, human; settings: Week 48; for CDR01-Sum of Boxes, Model Estimates, LSMean (SE) Difference: placebo vs troriluzole
Excerpt: The CDR-SOB (Hughes, Berg, Danziger, Coben, & Martin, 1982) is a validated composite rating of cognition and everyday functioning used in longitudinal AD research which incorporates both informant input and direct assessment of performance. It assesses through semi structured interview 3 cognitive domains including memory, orientation, and judgement/problem solving and 3 everyday functional domains including community affairs, home and hobbies and personal care. There are 5 levels of impairment from none CDR=0 to severe CDR=3. The individual domain scores are added to create a sum of the box scores.
as §1

[4] = test system: patients diagnosed with Alzheimer's disease of mild-to-moderate severity; assay: T2 Protect AD trial: volumetric MRI hippocampal volume (Quarc); format: in vivo, human; settings: for Hippocampal Volume Change, Model Estimates, LSMean (SE) Difference: Week 48, placebo vs troriluzole
Excerpt: vMRI allows the in vivo assessment of brain structure volume and provides a measure of atrophy rate. […] Atrophy of the medial temporal lobe, including hippocampus and entorhinal cortex, has long been described in vMRI studies of AD. Hippocampal volume derived from MRI correlates with histological hippocampal volume and degree of neuronal loss and AD pathology, and entorhinal cortical thickness change appears to be an early and sensitive indicator of neurodegeneration associated with AD (Holland et al., 2009; Jack et al., 2004).
Participants will undergo vMRI scans of the brain at screening, week 24 and week 48 in order to assess for changes in brain volumes that may be associated with clinical change due to treatment with BHV-4157.
Volumetric MRI scans will use the same imaging protocol, which will include a localizer scan, a 3D T1-weighted sagittal acquisition (MPRAGE or IR-SPGR), a T2-weighted FLAIR axial acquisition, a T2* gradient recalled echo axial acquisition for magnetic susceptibility, and a diffusion weighted axial acquisition to assess for restricted diffusion.
Images will be checked for image quality and adherence to scanning protocols. 3D T1-weighted datasets passing quality checks will be corrected for spatial distortion and for intensity variation. Screening and follow-up datasets for each participant will be spatially registered to one another using rigid-body registration followed by nonlinear registration and neuroanatomic parcellation to quantify whole-brain and subregional volumetric change on a patient-by patient basis.
Whole brain volume (WBV, excluding cerebellum), bilateral ventricular volume and bilateral hippocampal volume will be measured. Quantitative anatomical regional change (Quarc) will be used as the computational MR image processing application. Detail for the statistical computations is given in the Statistical Analytical Plan (SAP).
as §1

[5] = test system: patients diagnosed with Alzheimer's disease of mild-to-moderate severity; assay: T2 Protect AD trial: ADAS-Cog 11; format: in vivo, human; settings: for ADAS-Cog Total Score, Model Estimates, LSMean (SE): change from baseline; for ADAS-Cog Total Score, Model Estimates, LSMean (SE) Difference: placebo vs troriluzole
Excerpt: (§2) The ADAS-Cog 11 evaluates memory (word recall, word recognition), reasoning (following commands), language (naming, comprehension), orientation, ideational praxis (placing a letter in an envelope) and constructional praxis (copying geometric designs). Ratings of spoken language, language comprehension, word finding difficulty, and ability to remember test instructions are also obtained. The test is scored in terms of errors, with higher scores reflecting poorer performance and greater impairment. Scores can range from 0 (best) to 70 (worse).
The primary efficacy endpoint is the within-participant change in ADAS-Cog 11 from baseline to week 48, compared between the treatment group and the placebo group.
as §2, with “11 (Rosen, Mohs, & Davis, 1984) is a structured scale that” for “11”
as §1

[6] = after 48 weeks, mild AD, placebo minus troriluzole
[7] = Week 48, mild-to-moderate AD, 280 mg once daily

## Nc1nc2ccc(OC(F)(F)F)cc2s1 [Riluzole, riluzole]
[1]
  food effect on exposure: reduced exposure when taken with meals

## CN(CC(=O)Nc1nc2ccc(OC(F)(F)F)cc2s1)C(=O)CNC(=O)CN [Troriluzole, troriluzole]
[2]; Week 48, only mild AD, only moderate AD, only ApoE4 positive, only ApoE4 negative patients
  NPI across subgroups versus placebo: numerical differences of a potential benefit
[2]; mild AD
  NPI score LS mean change, difference versus placebo: −2.1 points
[2]; mild-to-moderate AD
  NPI score LS mean change, difference versus placebo: −1.5 points
[3]; mild-to-moderate AD
  outcome on co-primary endpoint CDR-SB: did not meet the study's pre-specified co-primary endpoints
  CDR01-Sum of Boxes, Model Estimates, LSMean (SE) Difference: −0.2 (0.28)
[3]; mild AD patients only
  CDR01-Sum of Boxes, Model Estimates, LSMean (SE) Difference: −0.3 (0.40)
[4]; mild AD patients only
  Hippocampal Volume Change, Model Estimates, LSMean (SE) Difference: −0.5 (0.38)
[4]; mild-to-moderate AD
  Hippocampal Volume Change, Model Estimates, LSMean (SE) Difference: 0.0 (0.26)
[4]; [6]
  hippocampal volume LS mean percent deformation change, difference versus placebo: −0.5%
[4]; overall population
  key secondary measure of hippocampal volume assessed by MRI, versus placebo: did not differentiate from placebo
[5]; Week 48, mild AD patients only
  ADAS-Cog Total Score, Model Estimates, LSMean (SE): 4.2
  ADAS-Cog Total Score, Change from Baseline, Mean (SD): 3.9
  ADAS-Cog Total Score, Model Estimates, LSMean (SE) Difference: 0.7 (1.02)
[5]; [7]
  ADAS-Cog Total Score, Model Estimates, LSMean (SE): 6.7 (0.70)
  ADAS-Cog Total Score, Change from Baseline, Mean (SD): 5.8 (7.40)
  ADAS-Cog Total Score, Change from Baseline, Median: 6.0
[5]; Week 48, mild AD patients only, 280 mg once daily
  ADAS-Cog Total Score, Analysis Value, Mean (SD): 26.2
[5]; Week 48, mild-to-moderate AD
  outcome on co-primary endpoint ADAS-cog: did not meet the study's pre-specified co-primary endpoints
  ADAS-Cog Total Score, Model Estimates, LSMean (SE) Difference: 0.0 (0.93)
[5]; [6]
  ADAS-Cog11 score LS mean change, difference versus placebo: 0.7 points
